Measurements published in PubChem BioAssay AID330 (DTP/NCI, 2004).
“And” between values parts separate entries of the source, which are not always exact repeats. Identical values can stand only once. Inconclusive results and toxic doses are left out.

Tested on: P388 leukemia ip, CD2F1 mice, survival T/C
Test: NCI In Vivo Anticancer Drug Screen. Data for tumor model P388 Leukemia (intraperitoneal) in CD2F1 (CDF1) mice
Conditions: endpoint: median survival time, higher = longer survival
Method in brief: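 Mice carrying the transplanted tumor received test compound or vehicle. Survival was recorded in each group, and the value is the treated-group measurement divided by that of the vehicle-treated control group.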

[1] = dose: 100.0 mg/kg/injection, schedule: Q04DX002 (ip), vehicle: saline with Tween-80
[2] = dose: 200.0 mg/kg/injection, schedule: Q04DX002 (ip), vehicle: saline with Tween-80
[3] = dose: 50.0 mg/kg/injection, schedule: Q01DX009 (ip), vehicle: saline with Tween-80
[4] = dose: 100.0 mg/kg/injection, schedule: Q01DX009 (ip), vehicle: saline with Tween-80
[5] = dose: 200.0 mg/kg/injection, schedule: Q01DX009 (ip), vehicle: saline with Tween-80
[6] = dose: 60.0 mg/kg/injection, schedule: Q01DX005 (ip), vehicle: saline with Tween-80
[7] = dose: 120.0 mg/kg/injection, schedule: Q01DX005 (ip), vehicle: saline with Tween-80
[8] = dose: 240.0 mg/kg/injection, schedule: Q01DX005 (ip), vehicle: saline with Tween-80
[9] = dose: 100.0 mg/kg/injection, schedule: Q04DX003 (ip), vehicle: saline

Cc1c(C)c(N(CCCl)CCCl)c(C)c2c1OC(C)(CCCC(C)CCCC(C)CCCC(C)C)CC2 (stereo not given)
T/C [1]: 113 % of control
T/C [2]: 113 % of control
T/C (dose: 400.0 mg/kg/injection, schedule: Q04DX002 (ip), vehicle: saline with Tween-80): 115 % of control

ClCCN(CCCl)c1ccc2c3c(cccc13)-c1ccccc1-2
T/C (dose: 25.0 mg/kg/injection, schedule: Q04DX003 (ip), vehicle: saline with Tween-80): 104 % of control
T/C [3]: 154 % of control
T/C [4]: 186 % of control
T/C (dose: 132.0 mg/kg/injection, schedule: Q04DX003 (ip), vehicle: saline with Tween-80): 159 % of control
T/C [5]: 86 % of control
T/C (dose: 200.0 mg/kg/injection, schedule: Q04DX003 (ip), vehicle: saline with Tween-80): 177 % of control and 212 % of control
T/C (dose: 300.0 mg/kg/injection, schedule: Q04DX003 (ip), vehicle: saline with Tween-80): 177 % of control

CSC1=NC=C(C#N)C2=NC(c3c(F)cccc3Cl)NN12 (stereo not given)
T/C [6]: 89 % of control
T/C [7]: 89 % of control
T/C [8]: 90 % of control

O=[N+]([O-])c1cccc(C(O)C=C(C(F)(F)F)C(F)(F)F)c1 (stereo not given)
T/C (dose: 25.0 mg/kg/injection, schedule: Q01DX009 (ip), vehicle: saline with Tween-80): 100 % of control
T/C (dose: 25.0 mg/kg/injection, schedule: Q04DX003 (ip), vehicle: saline): 100 % of control
T/C (dose: 33.0 mg/kg/injection, schedule: Q01DX009 (ip), vehicle: saline with Tween-80): 109 % of control
T/C [3]: 113 % of control
T/C (dose: 50.0 mg/kg/injection, schedule: Q04DX003 (ip), vehicle: saline): 95 % of control
T/C (dose: 75.0 mg/kg/injection, schedule: Q01DX009 (ip), vehicle: saline with Tween-80): 113 % of control
T/C [4]: 113 % of control
T/C [9]: 100 % of control

COc1ccc(NC(Cc2ccccc2)=NC(C)(C)C)cc1
T/C [3]: 98 % of control
T/C [4]: 89 % of control
T/C [5]: 94 % of control

C=CCCC(=O)OC(C)(C)C
T/C (dose: 12.5 mg/kg/injection, schedule: Q01DX009 (ip), vehicle: Klucel (hydroxypropylcellulose) (HPC)): 102 % of control
T/C (dose: 25.0 mg/kg/injection, schedule: Q01DX009 (ip), vehicle: Klucel (hydroxypropylcellulose) (HPC)): 101 % of control
T/C (dose: 50.0 mg/kg/injection, schedule: Q01DX009 (ip), vehicle: Klucel (hydroxypropylcellulose) (HPC)): 104 % of control
T/C (dose: 100.0 mg/kg/injection, schedule: Q01DX009 (ip), vehicle: Klucel (hydroxypropylcellulose) (HPC)): 101 % of control
T/C (dose: 200.0 mg/kg/injection, schedule: Q01DX009 (ip), vehicle: Klucel (hydroxypropylcellulose) (HPC)): 103 % of control

CC(=O)Sc1nnc2c3ccccc3n(C(C)=O)c2n1
T/C [9]: 99 % of control
T/C (dose: 200.0 mg/kg/injection, schedule: Q04DX003 (ip), vehicle: saline): 97 % of control
T/C (dose: 400.0 mg/kg/injection, schedule: Q04DX003 (ip), vehicle: saline): 105 % of control

[NH-]CC[N-]CCO.[NH-]CC[N-]CCO.[NH-]CC[N-]CCO.[Ni]
T/C (dose: 6.25 mg/kg/injection, schedule: Q01DX005 (ip), vehicle: saline): 93 % of control
T/C (dose: 12.5 mg/kg/injection, schedule: Q01DX005 (ip), vehicle: saline): 98 % of control
T/C (dose: 25.0 mg/kg/injection, schedule: Q01DX005 (ip), vehicle: saline): 107 % of control

Nc1nc(N)c2nc(CNc3ccc(C(=O)NC(CCC(=O)O)C(=O)O)cc3F)cnc2n1 (stereo not given)
T/C (dose: 1.87 mg/kg/injection, schedule: Q01DX005 (ip), vehicle: saline with Tween-80): 163 % of control
T/C (dose: 7.5 mg/kg/injection, schedule: Q01DX005 (ip), vehicle: saline with Tween-80): 183 % of control

N#Cc1cnn(-c2cccc(Cl)c2)c1-n1cccc1
T/C [3]: 100 % of control
T/C [4]: 100 % of control
T/C [5]: 93 % of control

C=C(C1OC2OC(C)(C)OC2C1OC)P(=O)(OC(C)C)OC(C)C (stereo not given)
T/C [1]: 98 % of control
T/C [2]: 98 % of control

Nc1nnc(CCC(=O)Nc2cc(Cl)c(Cl)cc2Cl)n1N
T/C [6]: 108 % of control
T/C [7]: 111 % of control
T/C [8]: 121 % of control
